This is an account of results in ChEMBL document CHEMBL5108009, “Positron Emission Tomography (PET) Imaging Tracers for Serotonin Receptors” (J Med Chem, 2022).

In series [1] the target is T1, 5-hydroxytryptamine receptor 2A (Homo sapiens, UniProt P28223). In words: Antagonist activity at human 5-HT2A receptor incubated for 3 hrs by radioligand binding assay. In kind it is functional.
For series [2], the target named is T1, 5-hydroxytryptamine receptor 2A. Put plainly: Inverse agonist activity at human 5-HT2A receptor incubated for 3 hrs by radioligand binding assay. In kind it is functional.
For series [3], the target named is T2, Alpha-1A adrenergic receptor (Rattus norvegicus, UniProt P43140).
T2 sequence (P43140 whole entry): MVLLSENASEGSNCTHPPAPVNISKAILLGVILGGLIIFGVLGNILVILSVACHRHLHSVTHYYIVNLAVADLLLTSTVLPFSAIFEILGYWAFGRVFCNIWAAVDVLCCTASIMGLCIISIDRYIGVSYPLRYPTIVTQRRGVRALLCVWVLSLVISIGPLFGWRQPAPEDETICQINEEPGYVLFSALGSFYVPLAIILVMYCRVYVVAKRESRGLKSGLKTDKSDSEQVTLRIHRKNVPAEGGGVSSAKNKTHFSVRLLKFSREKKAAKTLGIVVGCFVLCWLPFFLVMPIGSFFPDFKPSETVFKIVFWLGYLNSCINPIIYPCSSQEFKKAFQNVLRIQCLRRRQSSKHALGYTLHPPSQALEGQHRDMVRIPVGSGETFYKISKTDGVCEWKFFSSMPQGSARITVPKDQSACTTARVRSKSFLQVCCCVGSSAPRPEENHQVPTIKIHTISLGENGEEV
Put plainly: Displacement of [3H]-prazosin from rat whole cortex membrane homogenate alpha 1 adrenergic receptor. In kind it is cell membranes. (In general: Loss of bound radioactivity is the signal in a displacement assay; it reports binding, not function.)

Series [4] addresses T3, D(2) dopamine receptor (Rattus norvegicus, UniProt P61169). Put plainly: Displacement of [3H]-spiperone from rat frontal cortex membrane homogenate D2 receptor. In kind it is cell membranes.
Series [5] addresses Serotonin 3 (5-HT3) receptor. Put plainly: Binding affinity to 5-HT3 receptor (unknown origin) assessed as inhibition constant. In kind it is protein-complex assay, Homo sapiens.
A short description of series [6]: Drug uptake in rat brain frontal cortex relative to control. In kind it is ADME, tissue-based. The following applies: in vivo.
A short description of series [7]: Ratio of drug uptake in human frontal cortex to cerebellum at 15 mCi measured after 30 mins postinjection by PET imaging. In kind it is ADME, organism-based, Brain frontal cortex/cerebellum. To be noted: in vivo, 0.5 h.
In series [8] the target is Serotonin 2 (5-HT2) receptor (Homo sapiens, UniProt P41595+P28223+P28335). In words: Binding affinity to cerebrum 5-HT2 receptor (unknown origin). In kind it is tissue-based.
Series [9] is described as follows: Ratio of drug uptake in human frontal cortex to cerebellum at 15 mCi measured after 60 mins postinjection by PET imaging. In kind it is ADME, organism-based, Brain frontal cortex/cerebellum. The following applies: in vivo, 1 h.
Series [10] is described as follows: Drug uptake in Wistar rat frontal cortex assessed as non-displaceable binding potential at 10 MBq measured at 5 to 60 mins. In kind it is ADME, tissue-based. The following applies: in vivo, time 5-60 min.
Series [11] can be described thus: Ratio of drug uptake in Wistar rat cortex to cerebellum at 10 MBq measured at 30 mins. In kind it is ADME, tissue-based. To be noted: in vivo, 0.5 h.
The nature of series [12]: Drug metabolism in monkey plasma assessed as unchanged compound at 120 mins postinjection relative to control. The following applies: rhesus monkey, read-out: Stability. In kind it is ADME, organism-based, Macaca mulatta.
Series [13] in a line: Drug uptake ratio in cynomolgus monkey globus pallidus to cerebellum at 30 to 40 mins postinjection. In kind it is ADME, organism-based, Macaca fascicularis. The following applies: in vivo, time 30-40 min.
Series [14] in a line: Drug uptake ratio in cynomolgus monkey occipital cortex to cerebellum at 30 to 40 mins postinjection. In kind it is ADME, organism-based, Macaca fascicularis. To be noted: in vivo, time 30-40 min.
For series [15], the target named is T4, 5-hydroxytryptamine receptor 2A (Rattus norvegicus, UniProt P14842). Put plainly: Displacement of [3H]-spiperone from rat frontal cortex homogenate 5-HT2A receptor. In kind it is tissue-based.
In series [16] the target is T2, Alpha-1A adrenergic receptor. Put plainly: Displacement of [3H]-WB4101 from rat forebrain homogenate alpha 1 adrenergic receptor. In kind it is tissue-based.
In series [17] the target is T3, D(2) dopamine receptor. Put plainly: Displacement of [3H]-haloperidol from rat striatal homogenate D2 receptor. In kind it is tissue-based, Striatum.
Series [18] can be described thus: Ratio of drug uptake in human frontal cortex to cerebellum. In kind it is ADME, tissue-based, Brain frontal cortex/cerebellum.
Series [19] in a line: Ratio of drug uptake in baboon cerebral cortex to cerebellum measured at 60 mins postinjection. In kind it is ADME, organism-based, Papio. To be noted: in vivo, 1 h.
The nature of series [20]: Ratio of drug uptake in human striatum to cerebellum. In kind it is ADME, tissue-based.
Series [21] is described as follows: Ratio of drug uptake in baboon striatum to cerebellum measured at 60 mins postinjection. To be noted: in vivo, 1 h. In kind it is ADME, organism-based, Papio.
Series [22] in a line: Drug uptake in pig brain cortex measured at 10 to 20 mins postinjection. In kind it is ADME, organism-based, Sus scrofa. The following applies: in vivo, time 10-20 min.
The target in series [23] is T1, 5-hydroxytryptamine receptor 2A. In words: Binding affinity to human 5-HT2A assessed as inhibition constant.
Series [24] has as its target T5, 5-hydroxytryptamine receptor 2C (Homo sapiens, UniProt P28335).
T5 sequence (P28335 whole entry): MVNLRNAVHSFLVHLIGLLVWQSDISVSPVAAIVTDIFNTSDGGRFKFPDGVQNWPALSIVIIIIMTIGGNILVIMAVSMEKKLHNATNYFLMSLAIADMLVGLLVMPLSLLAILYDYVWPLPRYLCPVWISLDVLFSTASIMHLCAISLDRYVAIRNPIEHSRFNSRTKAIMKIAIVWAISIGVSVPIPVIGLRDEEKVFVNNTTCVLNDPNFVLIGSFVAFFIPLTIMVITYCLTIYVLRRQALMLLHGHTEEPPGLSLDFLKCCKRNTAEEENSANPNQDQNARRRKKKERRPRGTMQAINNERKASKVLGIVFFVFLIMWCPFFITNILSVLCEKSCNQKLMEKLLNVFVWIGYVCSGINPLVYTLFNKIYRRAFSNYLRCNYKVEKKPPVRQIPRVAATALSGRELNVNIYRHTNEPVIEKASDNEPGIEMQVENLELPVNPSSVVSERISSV
Put plainly: Binding affinity to human 5-HT2C assessed as inhibition constant.

Series [25] can be described thus: Drug uptake in pig brain cortex assessed as non-displaceable binding potential. In kind it is ADME, tissue-based, Sus scrofa. To be noted: in vivo.
The nature of series [26]: Biodistribution in Wistar rat assessed as uptake ratio of cortex to cerebellum at 50 to 100 microCi measured after 2 hrs. In kind it is ADME, organism-based. To be noted: in vivo, dose 50-100 microCi.
Series [27] has as its target T2, Alpha-1A adrenergic receptor. In words: Displacement of [3H]-WB4101 from rat forebrain alpha 1 adrenergic receptors. In kind it is tissue-based.
Series [28] addresses T3, D(2) dopamine receptor. Put plainly: Displacement of [3H]-halopridol from rat striatum D2 receptors.
In series [29] the target is 5-hydroxytryptamine receptor 2B (Homo sapiens, UniProt P41595). In words: Binding affinity to 5-HT2B (unknown origin) assessed as inhibition constant by liquid scintillation counter analysis.
The target of series [30] is T5, 5-hydroxytryptamine receptor 2C. Put plainly: Binding affinity to 5-HT2C (unknown origin) assessed as inhibition constant by liquid scintillation counter analysis.
Series [31] addresses T4, 5-hydroxytryptamine receptor 2A. In words: Binding affinity to rat 5-HT2A assessed as inhibition constant by liquid scintillation counter analysis.

The Ki is the equilibrium dissociation constant of an inhibitor or competing ligand from its target.

T3 sequence (P61169 whole entry): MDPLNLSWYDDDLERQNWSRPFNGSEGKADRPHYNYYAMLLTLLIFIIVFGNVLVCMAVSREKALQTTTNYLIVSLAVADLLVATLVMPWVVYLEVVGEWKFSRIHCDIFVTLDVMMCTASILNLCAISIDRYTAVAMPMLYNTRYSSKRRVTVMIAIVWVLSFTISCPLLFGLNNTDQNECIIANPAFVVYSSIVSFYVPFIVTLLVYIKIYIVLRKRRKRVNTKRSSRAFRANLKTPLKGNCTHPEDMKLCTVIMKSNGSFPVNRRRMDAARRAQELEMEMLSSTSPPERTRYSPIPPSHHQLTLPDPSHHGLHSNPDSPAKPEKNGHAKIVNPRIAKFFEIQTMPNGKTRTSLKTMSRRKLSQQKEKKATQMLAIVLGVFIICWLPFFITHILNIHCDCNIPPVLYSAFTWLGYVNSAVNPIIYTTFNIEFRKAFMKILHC
T1 sequence (P28223 whole entry): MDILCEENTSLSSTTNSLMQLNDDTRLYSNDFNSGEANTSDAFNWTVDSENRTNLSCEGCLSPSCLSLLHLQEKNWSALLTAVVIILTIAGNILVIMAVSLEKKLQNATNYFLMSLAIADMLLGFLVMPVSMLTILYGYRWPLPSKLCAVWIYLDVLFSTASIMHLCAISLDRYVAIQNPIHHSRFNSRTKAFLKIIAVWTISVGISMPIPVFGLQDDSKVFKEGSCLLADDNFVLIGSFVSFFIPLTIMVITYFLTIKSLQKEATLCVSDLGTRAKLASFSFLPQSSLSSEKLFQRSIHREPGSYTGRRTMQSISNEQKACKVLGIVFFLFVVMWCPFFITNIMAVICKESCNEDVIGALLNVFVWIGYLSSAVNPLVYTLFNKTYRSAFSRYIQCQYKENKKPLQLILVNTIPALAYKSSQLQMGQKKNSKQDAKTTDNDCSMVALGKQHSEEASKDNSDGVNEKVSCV
T4 sequence (P14842 whole entry): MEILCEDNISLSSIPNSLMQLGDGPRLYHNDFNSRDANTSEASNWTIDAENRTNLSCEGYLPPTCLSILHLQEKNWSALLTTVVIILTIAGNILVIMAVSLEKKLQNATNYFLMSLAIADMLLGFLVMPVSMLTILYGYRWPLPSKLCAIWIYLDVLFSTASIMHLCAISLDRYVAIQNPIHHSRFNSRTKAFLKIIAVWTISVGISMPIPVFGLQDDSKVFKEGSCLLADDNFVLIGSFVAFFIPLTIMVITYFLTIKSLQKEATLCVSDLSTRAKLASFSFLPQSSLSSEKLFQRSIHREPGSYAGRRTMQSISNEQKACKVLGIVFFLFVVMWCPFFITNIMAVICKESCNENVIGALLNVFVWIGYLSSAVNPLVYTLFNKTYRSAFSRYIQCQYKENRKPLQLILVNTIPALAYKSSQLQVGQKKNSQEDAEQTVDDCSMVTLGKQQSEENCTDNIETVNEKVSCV
Sequence of 5-hydroxytryptamine receptor 2B (P41595 whole entry): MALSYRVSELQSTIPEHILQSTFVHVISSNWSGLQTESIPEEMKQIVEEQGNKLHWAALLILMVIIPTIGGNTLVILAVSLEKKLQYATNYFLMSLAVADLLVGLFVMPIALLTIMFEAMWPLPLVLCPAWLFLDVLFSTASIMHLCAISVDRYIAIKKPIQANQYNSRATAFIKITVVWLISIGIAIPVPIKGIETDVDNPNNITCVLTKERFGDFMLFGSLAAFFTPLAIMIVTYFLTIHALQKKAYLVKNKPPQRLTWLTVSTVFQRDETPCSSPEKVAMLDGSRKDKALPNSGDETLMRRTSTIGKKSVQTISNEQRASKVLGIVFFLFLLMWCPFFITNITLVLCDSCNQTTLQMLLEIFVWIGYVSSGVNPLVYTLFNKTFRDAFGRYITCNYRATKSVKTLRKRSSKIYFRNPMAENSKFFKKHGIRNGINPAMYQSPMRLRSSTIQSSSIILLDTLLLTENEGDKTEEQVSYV

As for `COc1ccc(C(=O)N(Cc2ccc(C)cc2)C2CCN(C)CC2)cc1`, the Ki in series [1] came out at 2.5 nM; in series [2], 2.1 nM.
For the molecule `CCN(CC)C(=O)[C@@H]1C=C2c3cccc4c3c(c(Br)n4C)CC2N(C)C1` (stereo partly specified), the inhibitory constant (Ki) came out at 34 nM in series [3] and 3.9 nM in series [4].
On to `c1ccc(CN2CCN(c3nc4ccsc4n4cccc34)CC2)cc1`, for which, in [5], the inhibition constant Ki turned out to be 1 nM.
In the case of `COc1cccc([C@H](O)C2CCN(CCc3ccc([18F])cc3)CC2)c1OC`, in series [6], the Drug uptake is over 94%.
In the case of `CCN(CC)C(=O)[C@@H]1C=C2c3cccc4c3c(c(Br)n4[11CH3])CC2N(C)C1` (stereo partly specified), the Ratio in series [7] is on record as 1.7; in [9], 2.7. Besides, the Ki in [8] is 0.5 nM.
Take `COc1c(OCC[18F])cccc1[C@H](O)C1CCN(CCc2ccc(F)cc2)CC1`: the Drug uptake in [10] turned out to be 1.45. The Ratio in [11] is reported as 2.7.
For `[11CH3]N1CCN(c2cc(F)cc3c(=O)cc(C(=O)Nc4ccc(N5CCOCC5)c(F)c4)oc23)CC1`, the remaining at 2 h in series [12] is over 40%. The Ratio came to 2.5 in [13] and 2.2 in series [14].
`Cc1nc2n(c(=O)c1CCN1CCC(C(=O)c3ccc(F)cc3)CC1)CCS2` [SETOPERONE]: the Ki in series [15] turned out to be 2.3 nM; in [16], 12 nM; in [17] it was 24 nM.
As for `Cc1nc2n(c(=O)c1CCN1CCC(C(=O)c3ccc([18F])cc3)CC1)CCS2`, the Ratio in series [18] came to 2.53; in series [19], 3; in series [20] it was 2.38; in series [21] it was 3.5.
On to `COc1cc(CCNCc2ccccc2O[11CH3])c(OC)cc1Br`, for which the SUV in series [22] is 0.8. Besides, the inhibition constant Ki was found to be 0.5 nM in series [23] and 1.7 nM in series [24]. For the same molecule, in [25], the Drug uptake is listed as 0.62.
`O=C(c1ccc([18F])cc1)C1CCN(CCn2c(=S)[nH]c3ccccc3c2=O)CC1`: the Ratio in [26] was 11.
`O=C(c1ccc(F)cc1)C1CCN(CCn2c(=S)[nH]c3ccccc3c2=O)CC1` [ALTANSERIN]: the Ki was determined as 5 nM in series [27] and 62 nM in [28].
Consider `COc1cc(CCNCc2ccccc2OC)c(OC)cc1I`, for which the Ki in series [29] came out at 2.3 nM; in series [30], 7 nM; in series [31], 2.2 nM.
